“And” between values parts separate entries of the source, which are not always exact repeats. Equal entries are not always repeated. Blank lines part the entries; values can stand above or below the molecule they belong to.
System: A498 complex spheroid viability
Test: Anticancer human tumor A498 cell line growth inhibition;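 also: spheroids exposed to agents for seven days before readout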;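 as to viability, T/C: 100% = DMSO vehicle-treated spheroids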
Conditions: for viability, T/C: stronger effect = lower value
Procedure, shortened: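 Multicellular complex spheroids of tumor cells with human endothelial cells (HUVEC) and mesenchymal stem cells; the LSD1 inhibitor iadademstat was combined with standard-of-care or investigational agents. Top concentration at or near clinical Cmax, half-log dilutions; final DMSO ≤0.25%.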

[1] = curve of first compound, second compound 0.1 µM
[2] = curve of first compound, second compound 0.316 µM
[3] = curve of first compound, second compound 1 µM
[4] = curve of first compound, second compound 3.16 µM
[5] = curve of first compound, second compound 10 µM
[6] = second compound 0.1 µM, first compound 0.000316 µM
[7] = second compound 0.1 µM, first compound 0.001 µM
[8] = second compound 0.1 µM, first compound 0.00316 µM
[9] = second compound 0.1 µM, first compound 0.01 µM
[10] = second compound 0.1 µM, first compound 0.0316 µM
[11] = second compound 0.1 µM, first compound 0.1 µM
[12] = second compound 0.316 µM, first compound 0.000316 µM
[13] = second compound 0.316 µM, first compound 0.001 µM
[14] = second compound 0.316 µM, first compound 0.00316 µM
[15] = second compound 0.316 µM, first compound 0.01 µM
[16] = second compound 0.316 µM, first compound 0.0316 µM
[17] = second compound 0.316 µM, first compound 0.1 µM
[18] = second compound 1 µM, first compound 0.000316 µM
[19] = second compound 1 µM, first compound 0.001 µM
[20] = second compound 1 µM, first compound 0.00316 µM
[21] = second compound 1 µM, first compound 0.01 µM
[22] = second compound 1 µM, first compound 0.0316 µM
[23] = second compound 1 µM, first compound 0.1 µM
[24] = second compound 3.16 µM, first compound 0.000316 µM
[25] = second compound 3.16 µM, first compound 0.001 µM
[26] = second compound 3.16 µM, first compound 0.00316 µM
[27] = second compound 3.16 µM, first compound 0.01 µM
[28] = second compound 3.16 µM, first compound 0.0316 µM
[29] = second compound 3.16 µM, first compound 0.1 µM
[30] = second compound 10 µM, first compound 0.000316 µM
[31] = second compound 10 µM, first compound 0.001 µM
[32] = second compound 10 µM, first compound 0.00316 µM
[33] = second compound 10 µM, first compound 0.01 µM
[34] = second compound 10 µM, first compound 0.0316 µM
[35] = second compound 10 µM, first compound 0.1 µM
[36] = second compound 0.1 µM, first compound 0.000949 µM
[37] = second compound 0.1 µM, first compound 0.003 µM
[38] = second compound 0.1 µM, first compound 0.00949 µM
[39] = second compound 0.1 µM, first compound 0.03 µM
[40] = second compound 0.1 µM, first compound 0.0949 µM
[41] = second compound 0.1 µM, first compound 0.3 µM
[42] = second compound 0.316 µM, first compound 0.000949 µM
[43] = second compound 0.316 µM, first compound 0.003 µM
[44] = second compound 0.316 µM, first compound 0.00949 µM
[45] = second compound 0.316 µM, first compound 0.03 µM
[46] = second compound 0.316 µM, first compound 0.0949 µM
[47] = second compound 0.316 µM, first compound 0.3 µM
[48] = second compound 1 µM, first compound 0.000949 µM
[49] = second compound 1 µM, first compound 0.003 µM
[50] = second compound 1 µM, first compound 0.00949 µM
[51] = second compound 1 µM, first compound 0.03 µM
[52] = second compound 1 µM, first compound 0.0949 µM
[53] = second compound 1 µM, first compound 0.3 µM
[54] = second compound 3.16 µM, first compound 0.000949 µM
[55] = second compound 3.16 µM, first compound 0.003 µM
[56] = second compound 3.16 µM, first compound 0.00949 µM
[57] = second compound 3.16 µM, first compound 0.03 µM
[58] = second compound 3.16 µM, first compound 0.0949 µM
[59] = second compound 3.16 µM, first compound 0.3 µM
[60] = second compound 10 µM, first compound 0.000949 µM
[61] = second compound 10 µM, first compound 0.003 µM
[62] = second compound 10 µM, first compound 0.00949 µM
[63] = second compound 10 µM, first compound 0.03 µM
[64] = second compound 10 µM, first compound 0.0949 µM
[65] = second compound 10 µM, first compound 0.3 µM

Structure (SMILES): CC[C@@]1(O)C(=O)OCc2c1cc1n(c2=O)Cc2cc3c(CN(C)C)c(O)ccc3nc2-1 + NC1CCC(NC2CC2c2ccccc2)CC1
IC50 [1]: 39.6 nM
IC50 [2]: 47.3 nM
IC50 [3]: 38.4 nM
IC50 [4]: 36.3 nM
IC50 [5]: 29.3 nM
viability, T/C [6]: 82.3%
viability, T/C [7]: 82.9%
viability, T/C [8]: 71.7%
viability, T/C [9]: 61.2%
viability, T/C [10]: 57.5%
viability, T/C [11]: 35.7%
viability, T/C [12]: 96.6%
viability, T/C [13]: 88.2%
viability, T/C [14]: 81.8%
viability, T/C [15]: 68%
viability, T/C [16]: 59.1%
viability, T/C [17]: 37.4%
viability, T/C [18]: 85.3%
viability, T/C [19]: 82.3%
viability, T/C [20]: 78.8%
viability, T/C [21]: 62.8%
viability, T/C [22]: 56.6%
viability, T/C [23]: 32.2%
viability, T/C [24]: 78.7%
viability, T/C [25]: 81.5%
viability, T/C [26]: 73.1%
viability, T/C [27]: 64.8%
viability, T/C [28]: 53.7%
viability, T/C [29]: 30.6%
viability, T/C [30]: 76.9%
viability, T/C [31]: 79%
viability, T/C [32]: 69.8%
viability, T/C [33]: 61.9%
viability, T/C [34]: 50.1%
viability, T/C [35]: 28%

Structure (SMILES): Nc1ncn(C2CC(O)C(CO)S2)c(=O)n1 (configuration not stated) + NC1CCC(NC2CC2c2ccccc2)CC1
IC50 [1]: 154 nM
IC50 [2]: 146 nM
IC50 [3]: 113 nM
IC50 [4]: 74 nM
IC50 [5]: 48.4 nM
viability, T/C [36]: 101%
viability, T/C [37]: 92.5%
viability, T/C [38]: 88.6%
viability, T/C [39]: 87.5%
viability, T/C [40]: 62.1%
viability, T/C [41]: 31.5%
viability, T/C [42]: 95.1%
viability, T/C [43]: 98.7%
viability, T/C [44]: 98%
viability, T/C [45]: 95.2%
viability, T/C [46]: 58.4%
viability, T/C [47]: 36%
viability, T/C [48]: 90.4%
viability, T/C [49]: 94.9%
viability, T/C [50]: 91.6%
viability, T/C [51]: 81.7%
viability, T/C [52]: 54.4%
viability, T/C [53]: 26.2%
viability, T/C [54]: 85.1%
viability, T/C [55]: 83.5%
viability, T/C [56]: 90.6%
viability, T/C [57]: 75.8%
viability, T/C [58]: 43%
viability, T/C [59]: 23.7%
viability, T/C [60]: 74.5%
viability, T/C [61]: 81.7%
viability, T/C [62]: 76.1%
viability, T/C [63]: 67.2%
viability, T/C [64]: 25.9%
viability, T/C [65]: 14.3%

Structure (SMILES): CC(C)CC(NC(=O)CNC(=O)c1cc(Cl)ccc1Cl)B1OC(=O)CC(CC(=O)O)(C(=O)O)O1 (configuration not stated) + NC1CC1c1ccc(-c2cccc(O)c2)cc1
IC50 [1]: 4.26 nM
IC50 [2]: 4.8 nM
IC50 [3]: 4.44 nM
IC50 [4]: 4.29 nM
IC50 [5]: 3.46 nM
viability, T/C [6]: 93.7%
viability, T/C [7]: 96.5%
viability, T/C [8]: 60%
viability, T/C [9]: 18.1%
viability, T/C [10]: 5.77%
viability, T/C [11]: 2.14%
viability, T/C [12]: 106%
viability, T/C [13]: 114%
viability, T/C [14]: 68.1%
viability, T/C [15]: 17.3%
viability, T/C [16]: 5.27%
viability, T/C [17]: 1.97%
viability, T/C [18]: 96.6%
viability, T/C [19]: 102%
viability, T/C [20]: 62.9%
viability, T/C [21]: 16.8%
viability, T/C [22]: 3.81%
viability, T/C [23]: 1.83%
viability, T/C [24]: 91.8%
viability, T/C [25]: 94.4%
viability, T/C [26]: 61%
viability, T/C [27]: 16.9%
viability, T/C [28]: 3.71%
viability, T/C [29]: 1.96%
viability, T/C [30]: 98.4%
viability, T/C [31]: 92.1%
viability, T/C [32]: 51.7%
viability, T/C [33]: 15.6%
viability, T/C [34]: 2.82%
viability, T/C [35]: 1.07%

Structure (SMILES): CCc1c2c(nc3ccc(O)cc13)-c1cc3c(c(=O)n1C2)COC(=O)[C@]3(O)CC + NC1CCC(NC2CC2c2ccccc2)CC1
IC50 [1]: < 0.949 nM
IC50 [2]: < 0.949 nM
IC50 [3]: < 0.949 nM
IC50 [4]: < 0.949 nM
IC50 [5]: < 0.949 nM
viability, T/C [36]: 44.1%
viability, T/C [37]: 34.7%
viability, T/C [38]: 26.7%
viability, T/C [39]: 3.44%
viability, T/C [40]: 0.09%
viability, T/C [41]: 0.11%
viability, T/C [42]: 46%
viability, T/C [43]: 33%
viability, T/C [44]: 26.4%
viability, T/C [45]: 3.19%
viability, T/C [46]: 0.19%
viability, T/C [47]: 0.12%
viability, T/C [48]: 47.1%
viability, T/C [49]: 37.2%
viability, T/C [50]: 25.6%
viability, T/C [51]: 3.37%
viability, T/C [52]: 0.22%
viability, T/C [53]: 0.47%
viability, T/C [54]: 44.5%
viability, T/C [55]: 34.5%
viability, T/C [56]: 27.7%
viability, T/C [57]: 1.91%
viability, T/C [58]: 0.05%
viability, T/C [59]: 0.11%
viability, T/C [60]: 42.5%
viability, T/C [61]: 31%
viability, T/C [62]: 26%
viability, T/C [63]: 4.35%
viability, T/C [64]: 0.12%
viability, T/C [65]: 0.17%

Structure (SMILES): Nc1ncn(C2CC(O)C(CO)S2)c(=O)n1 (configuration not stated) + NC1CC1c1ccc(-c2cccc(O)c2)cc1
IC50 [1]: 255 nM
IC50 [2]: 254 nM
IC50 [3]: 257 nM
IC50 [4]: 236 nM
IC50 [5]: 259 nM
viability, T/C [36]: 110%
viability, T/C [37]: 116%
viability, T/C [38]: 115%
viability, T/C [39]: 95.4%
viability, T/C [40]: 74.7%
viability, T/C [41]: 45.9%
viability, T/C [42]: 114%
viability, T/C [43]: 121%
viability, T/C [44]: 116%
viability, T/C [45]: 104%
viability, T/C [46]: 81.9%
viability, T/C [47]: 44.6%
viability, T/C [48]: 118%
viability, T/C [49]: 123%
viability, T/C [50]: 119%
viability, T/C [51]: 105%
viability, T/C [52]: 81.8%
viability, T/C [53]: 44.8%
viability, T/C [54]: 114%
viability, T/C [55]: 106%
viability, T/C [56]: 125%
viability, T/C [57]: 109%
viability, T/C [58]: 78.7%
viability, T/C [59]: 42.5%
viability, T/C [60]: 104%
viability, T/C [61]: 110%
viability, T/C [62]: 118%
viability, T/C [63]: 105%
viability, T/C [64]: 87.9%
viability, T/C [65]: 44.5%

IC50 (curve of compound): > 1000 nM and 381 nM
Structure (SMILES): COc1cc(Nc2ncc3c(n2)-c2ccc(Cl)cc2C(c2c(F)cccc2OC)=NC3)ccc1C(=O)O
viability, T/C (compound 0.00316 µM): 95.5% and 94.2%
viability, T/C (compound 0.01 µM): 84.6% and 64.9%
viability, T/C (compound 0.0316 µM): 76.9% and 71.9%
viability, T/C (compound 0.1 µM): 66.4% and 62.6%
viability, T/C (compound 0.316 µM): 60% and 54.1%
viability, T/C (compound 1 µM): 50.4% and 40.4%
